“And” between values parts separate entries of the source, which are not always exact repeats. Equal values may be shown once. Read-outs that look alike come from different tables or passages of the source.
Assays:
16HBE cells = test: Uptake of metabolites into 16HBE cells at ALI, LC-MS/MS of cellular lysate; assay type: in vitro ADME, human; settings: for mean concentration detected in the cells: 16HBE at ALI, 1000nM of the compound in basolateral media, 48 hours; for crossing of the plasma membrane of airway epithelial cells: 16HBE in vitro model
HNEs, HBEs, and CFBEs = assay type: in vitro ADME, human; settings: ALI cultures, 1000nM of Iva basolateral, 48 hours; for metabolite detected in apical or basolateral media: media prior to cell lysis (data not shown)
nasal brushings lysate = settings: pwCF; cited from earlier work
[1] = assay type: in vivo, human; settings: capillary plasma, pwCF, ivacaftor 150mg twice daily steady state, n = 8; for Cmax / half-life: human, oral, 150 mg
CYP3A4 = settings: in vitro; cited from earlier work
CFTR = settings: cited from earlier work
[2] = pwCF; cited from earlier work
Metabolite:parent ratio = assay type: in vivo, human; settings: capillary plasma, metabolite:Iva, 12 hour dosing interval
dopamine transporter = settings: cited from earlier work
5-HT2C receptor = settings: cited from earlier work
δ-opioid receptor = settings: cited from earlier work
β3-adrenergic receptor = settings: cited from earlier work
[3] = test system: human nasal epithelial cells; test: Capillary plasma versus nasal epithelial cell concentrations; assay type: in vivo; settings: nasal epithelial cell lysate of participants taking ivacaftor
[4] = assay type: in vivo, human; settings: plasma of a participant taking ivacaftor

Compound | mean concentration detected in the cells (16HBE cells) | crossing of the plasma membrane of airway epithelial cells (16HBE cells) | metabolite detected in cells treated with Iva (HNEs, HBEs, and CFBEs; cell lysate) | metabolite detected in apical or basolateral media (HNEs, HBEs, and CFBEs) | Cavg, Mean (SD) [1] | Cavg, Median (min, max) [1] | Cmax, Mean (SD) [1] | Cmax, Median (min, max) [1] | Cmin, Mean (SD) [1] | Cmin, Median (min, max) [1] | T1/2, Mean (SD) [1] | T1/2, Median (min, max) [1] | Tmax, Mean (SD) [1] | Tmax, Median (min, max) [1] | effect on CYP3A4 activity (CYP3A4) | activity relative to parent Iva (CFTR) | potentiation activity relative to that of Iva (CFTR) | Cavg, venous plasma [2] [ng/mL] | mean metabolite:parent ratio (MPR) (Metabolite:parent ratio) | other results
CC(C)(C)c1cc(C(C)(C)CO)c(O)cc1NC(=O)c1c[nH]c2ccccc2c1=O [M1-Iva, hydroxymethyl ivacaftor] | 1000 ng/ml and 2.5 μM | readily enters the airway epithelial cells | No M1-Iva and M6-Iva were detected | no M1-Iva and M6-Iva were detected | 726 (365) ng/mL | 607 (256, 1170) ng/mL | 1036 (520) ng/mL | 913 (402, 1750) ng/mL | 501 (228) ng/mL | 475 (55, 839) ng/mL | 9.2 (4.29) h | 8.7 (3.35, 16.4) h | 5.3 (0.7) h | 5 (4, 6) h | stronger inhibition | 1/6 | 1/6 | 3156 | 1.5 | mean concentration in nasal brushings lysate (nasal brushings lysate): 696 ng/mL
CC(C)(C)c1cc(C(C)(C)C)c(NC(=O)c2c[nH]c3ccccc3c2=O)cc1O [Iva, ivacaftor] | – | – | – | – | 532 (343) ng/mL | 416(221, 1206) ng/mL | – | – | 352 (245) ng/mL | 287 (113, 813) ng/mL | – | – | – | 5 (4, 6) h | reduce CYP3A4 activity | – | – | – | – | parent compound detected in cells (HNEs, HBEs, and CFBEs; cell lysate): detected in all the cell types; Cmax ([1]; Mean (SD)): 744 ng/mL; Cmax ([1]; Median (min, max)): 552 ng/mL; half-life ([1]; T1/2, Mean (SD)): 7.9 h; half-life ([1]; T1/2, Median (min, max)): 6.7 h; affinity (dopamine transporter): significant affinity; affinity (5-HT2C receptor): significant affinity; affinity (δ-opioid receptor): significant affinity; affinity (β3-adrenergic receptor): significant affinity
CC(C)(C)c1cc(C(C)(C)C(=O)O)c(O)cc1NC(=O)c1c[nH]c2ccccc2c1=O [M6-Iva, ivacaftor carboxylate] | 15 ng/ml and 0.04 μM | does not readily cross the plasma membrane | No M1-Iva and M6-Iva were detected | no M1-Iva and M6-Iva were detected | 797 (430) ng/mL | 842 (231, 1418) ng/mL | 927 (456) ng/mL | 918 (265, 1630) ng/mL | 522 (365) ng/mL | 527 (5.8, 1070) ng/mL | 8.8 (6.6) h | 8.8 (4.2, 13.5) h | 6.9 (3.7) h | 8 (4, 10) h | – | inactive metabolite | 1/50 | 3821 | 1.6 | average concentration in the cellular lysate (16HBE cells; 16HBE, 5000nM of the compound, 48 hours (data not shown)): 81 ng/ml and 0.19 μM; detection in cellular samples [3]: found only in one cellular sample
ivacaftor hydrate [Iva-hydrate] | – | – | – | – | – | – | – | – | – | – | – | – | – | – | – | – | – | – | – | detection in plasma (qualitative) [4]: small peaks
